{
  "source": "patent US7824698B2",
  "about": "“Lyophilized formulations of Salinosporamide A” (Nereus Pharmaceuticals, Inc., priority 2007, dated 2010)",
  "key": {"[1]": {"experiment": "Solubility and stability in tert-butanol and Kollidon-TBA vehicles by HPLC", "format": "physicochemical", "method": "Salinosporamide A solubility was determined in 100% tert-butanol (TBA) and in TBA containing 3% (w/v) Kollidon 12 PF and 3% (w/v) Kollidon 17 PF, respectively. Both Kollidons can dissolve in TBA at approximately 4% (w/v). 3% Kollidon can serve as the bulking agent to support a lyophilization preparation. Salinosporamide A was added and saturated in the vehicles at ambient room temperature overnight. Salinosporamide A solutions were filtered and analyzed by HPLC to determine the solubility."}, "[2]": {"experiment": "Chemical stability of the API"}, "[3]": {"experiment": "Salinosporamide A in-situ phase solubility and stability in H2O-TBA", "format": "physicochemical", "settings": "for HPLC Assay (% Purity): room temp.", "method": "Salinosporamide A in-situ phase solubility and stability were determined in 10, 20 and 30% H2O-TBA (v/v) solutions. Salinosporamide A was prepared at 2 mg/mL in TBA as a stock solution. HPLC water was spiked into the Salinosporamide A solution aliquot to make up the equivalent 10, 20 and 30% H2O-TBA solutions at room temperature. Each drug solution was mixed and immediately filtered. The filtrate was collected as time zero sample and analyzed by HPLC at real time to avoid drug degradation. The filtrate was subsequently sampled and filtered at 4, 24 and 48 hr to monitor drug stability at ambient room temperature."}},
  "data": [
    {"smiles": "C[C@@]12OC(=O)[C@]1([C@@H](O)[C@@H]1C=CCCC1)NC(=O)[C@@H]2CCCl", "note": "[Salinosporamide A]", "values": [
      {"measurement": "solubility", "setting": "[1]; 3% Kollidon 12 PF-TBA", "value": 4900, "unit": "µg/mL"},
      {"measurement": "stability in solution", "setting": "[1]; 3% Kollidon 12 PF-TBA and 3% Kollidon 17 PF-TBA, room temperature overnight", "value": "stable"},
      {"measurement": "solubility", "setting": "[1]; 3% Kollidon 17 PF-TBA", "value": 4200, "unit": "µg/mL"},
      {"measurement": "solubility", "setting": "[1]; 100% TBA, ambient room temperature", "value": 2000, "unit": "µg/mL"},
      {"measurement": "stability in solution", "setting": "[1]; 100% TBA, ambient room temperature overnight", "value": "stable"},
      {"measurement": "stability in aqueous solution", "setting": "[2]; neutral and basic pH values", "value": "labile"},
      {"measurement": "time API is stable", "setting": "[2]; stored at −20° C. desiccated", "value": "at least 12 months"},
      {"measurement": "bulk solution stability", "setting": "[3]; 1 mg/mL in 10-30% H2O-TBA co-solvent systems, room temperature", "value": "stable"},
      {"measurement": "HPLC Assay (% Purity)", "setting": "[3]; 10% H2O-TBA, 0 hr", "value": 100.0, "unit": "%"},
      {"measurement": "HPLC Assay (% Purity)", "setting": "[3]; 10% H2O-TBA, 4 hr", "value": 99.5, "unit": "%"},
      {"measurement": "HPLC Assay (% Purity)", "setting": "[3]; 10% H2O-TBA, 24 hr", "value": 99.8, "unit": "%"},
      {"measurement": "HPLC Assay (% Purity)", "setting": "[3]; 10% H2O-TBA, 48 hr", "value": 99.7, "unit": "%"},
      {"measurement": "HPLC Assay (% Purity)", "setting": "[3]; 20% H2O-TBA, 0 hr", "value": 100.0, "unit": "%"},
      {"measurement": "HPLC Assay (% Purity)", "setting": "[3]; 20% H2O-TBA, 4 hr", "value": 99.8, "unit": "%"},
      {"measurement": "HPLC Assay (% Purity)", "setting": "[3]; 20% H2O-TBA, 24 hr", "value": 99.8, "unit": "%"},
      {"measurement": "HPLC Assay (% Purity)", "setting": "[3]; 20% H2O-TBA, 48 hr", "value": 99.7, "unit": "%"},
      {"measurement": "HPLC Assay (% Purity)", "setting": "[3]; 30% H2O-TBA, 0 hr", "value": 100.0, "unit": "%"},
      {"measurement": "HPLC Assay (% Purity)", "setting": "[3]; 30% H2O-TBA, 4 hr", "value": 99.8, "unit": "%"},
      {"measurement": "HPLC Assay (% Purity)", "setting": "[3]; 30% H2O-TBA, 24 hr", "value": 99.5, "unit": "%"},
      {"measurement": "HPLC Assay (% Purity)", "setting": "[3]; 30% H2O-TBA, 48 hr", "value": 99.3, "unit": "%"}
    ]}
  ]
}
